In patent publication US20070154580A1, “Antiviral Morinda Citrifolia L. Based Formulations and Methods of Administration” (priority 2005, published 2007):
Read-outs that look alike come from different tables or passages of the source.

Tests used:
[1] = molecular target: T1, Protease, CTSG (Cathepsin G) (Homo sapiens, UniProt P08311); assay: Protease, CTSG (Cathepsin G) inhibition assay; assay type: biochemical; conditions: reference compound, concurrent run; read-out: Concurrent MIC IC50
T1 sequence (P08311 21-255): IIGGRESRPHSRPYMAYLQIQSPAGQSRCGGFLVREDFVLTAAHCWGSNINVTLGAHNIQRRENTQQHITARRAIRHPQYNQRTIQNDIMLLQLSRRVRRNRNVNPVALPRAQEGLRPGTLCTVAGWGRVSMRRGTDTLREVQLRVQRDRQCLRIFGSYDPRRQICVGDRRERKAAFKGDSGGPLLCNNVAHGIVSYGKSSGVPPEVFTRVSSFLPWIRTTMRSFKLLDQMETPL

[2] = molecular target: T1, Protease, CTSG (Cathepsin G); conditions: reference compound, historical value; cited from earlier work

IC50 [1]: 1220 nM
Structure (SMILES): CC(C)C[C@H](NC(=O)[C@@H](NC(=O)N[C@@H](Cc1ccccc1)C(=O)O)[C@@H]1CCN=C(N)N1)C(=O)N[C@H](C=O)Cc1ccccc1 [Chumostatin]
IC50 [2]: 2100 nM
